Measured values as given in the NIST ThermoML archive (doi:10.1021/acs.jced.7b00321).
± gives the expanded uncertainty stated by the source.

Experiment: xn = mol fraction of the nth substance listed
Conditions: 101 kPa, Liquid; for viscosity: Capillary tube (Ostwald / Ubbelohde) method; for mass density: Vibrating tube method

CC(O)CN (stereo not drawn) [1-amino-2-propanol] + CCO
Conditions	mass density, 293.15 K [kg/m3]	mass density, 303.15 K [kg/m3]	mass density, 313.15 K [kg/m3]	mass density, 323.15 K [kg/m3]	viscosity, 293.15 K [mPa·s]	viscosity, 303.15 K [mPa·s]	viscosity, 313.15 K [mPa·s]	viscosity, 323.15 K [mPa·s]
x1 = 0.1009	815.54 ± 2.1	807.78 ± 2.2	798.04 ± 2.2	790.57 ± 2	1.69 ± 0.05	1.35 ± 0.03	1.1 ± 0.03	0.9 ± 0.02
x1 = 0.2	839.35 ± 2	830.91 ± 2.3	821.03 ± 2.2	813.16 ± 2.2	2.38 ± 0.06	1.83 ± 0.05	1.45 ± 0.03	1.16 ± 0.03
x1 = 0.3015	860.99 ± 2.1	852.05 ± 2.3	842.37 ± 2.2	834.09 ± 2.2	3.39 ± 0.09	2.51 ± 0.06	1.91 ± 0.05	1.49 ± 0.03
x1 = 0.3999	879.64 ± 2.1	870.63 ± 2.2	860.91 ± 2.2	852.56 ± 2.2	4.74 ± 0.12	3.38 ± 0.08	2.49 ± 0.06	1.89 ± 0.04
x1 = 0.4999	896.77 ± 2.1	887.58 ± 2.2	878.08 ± 2.2	869.65 ± 2.1	6.61 ± 0.16	4.53 ± 0.11	3.23 ± 0.08	2.39 ± 0.06
x1 = 0.5992	912.21 ± 2.1	903.08 ± 2.2	893.58 ± 2.1	885.11 ± 2.1	9.15 ± 0.23	6.04 ± 0.15	4.17 ± 0.1	3.01 ± 0.07
x1 = 0.6996	926.22 ± 2.1	917.08 ± 2.2	907.84 ± 2.1	899.63 ± 2.1	12.64 ± 0.31	8.01 ± 0.19	5.35 ± 0.13	3.76 ± 0.09
x1 = 0.7998	938.83 ± 2.1	929.86 ± 2.1	921.21 ± 2	912.9 ± 2.1	17.3 ± 0.43	10.53 ± 0.25	6.84 ± 0.16	4.7 ± 0.11
x1 = 0.8995	950.36 ± 2.1	941.55 ± 2	933.29 ± 2	924.97 ± 2	23.42 ± 0.56	13.8 ± 0.35	8.64 ± 0.21	5.75 ± 0.13

NCCCO [3-amino-1-propanol] + CCO
Conditions	mass density, 293.15 K [kg/m3]	mass density, 303.15 K [kg/m3]	mass density, 313.15 K [kg/m3]	mass density, 323.15 K [kg/m3]	viscosity, 293.15 K [mPa·s]	viscosity, 303.15 K [mPa·s]	viscosity, 313.15 K [mPa·s]	viscosity, 323.15 K [mPa·s]
x1 = 0.101	820.04 ± 2.1	812.33 ± 2.3	802.78 ± 2.3	795.11 ± 2.1	1.77 ± 0.05	1.41 ± 0.04	1.18 ± 0.03	0.97 ± 0.03
x1 = 0.2008	847.98 ± 2	839.91 ± 2.3	830.23 ± 2.3	822.21 ± 2.3	2.7 ± 0.07	2.05 ± 0.05	1.63 ± 0.04	1.32 ± 0.03
x1 = 0.3001	871.99 ± 2	863.77 ± 2.2	854.17 ± 2.2	846.08 ± 2.2	4.06 ± 0.11	2.97 ± 0.08	2.29 ± 0.06	1.79 ± 0.04
x1 = 0.4006	894.28 ± 2	885.95 ± 2.2	876.32 ± 2.2	867.97 ± 2.2	6.22 ± 0.17	4.43 ± 0.11	3.25 ± 0.08	2.49 ± 0.06
x1 = 0.4999	914.13 ± 2	905.74 ± 2.2	896.28 ± 2.2	887.91 ± 2.2	9.34 ± 0.25	6.31 ± 0.16	4.53 ± 0.11	3.33 ± 0.08
x1 = 0.5994	932.46 ± 2	923.63 ± 2.2	914.45 ± 2.1	906.05 ± 2.2	13.88 ± 0.36	8.89 ± 0.22	6.17 ± 0.15	4.35 ± 0.1
x1 = 0.6993	948.72 ± 2	940.08 ± 2.1	931.32 ± 2.1	922.79 ± 2.2	19.55 ± 0.48	12.09 ± 0.29	8.08 ± 0.19	5.52 ± 0.13
x1 = 0.7999	963.35 ± 2	954.73 ± 2	946.49 ± 2	938.29 ± 2.1	26.29 ± 0.62	15.91 ± 0.38	10.18 ± 0.24	6.82 ± 0.16
x1 = 0.8998	975.98 ± 2	967.76 ± 2	959.83 ± 2	951.35 ± 2	32.9 ± 0.75	19.96 ± 0.49	12.86 ± 0.31	8.29 ± 0.19

NCCNCCO [N-(2-aminoethyl)ethanolamine] + CCO
Conditions	mass density, 293.15 K [kg/m3]	mass density, 303.15 K [kg/m3]	mass density, 313.15 K [kg/m3]	mass density, 323.15 K [kg/m3]	viscosity, 293.15 K [mPa·s]	viscosity, 303.15 K [mPa·s]	viscosity, 313.15 K [mPa·s]	viscosity, 323.15 K [mPa·s]
x1 = 0.1003	836.01 ± 2.5	827.72 ± 2.6	817.72 ± 2.5	810.06 ± 2.4	2.27 ± 0.09	1.78 ± 0.06	1.41 ± 0.05	1.13 ± 0.04
x1 = 0.2	876.03 ± 2.3	866.47 ± 2.6	856.04 ± 2.5	847.84 ± 2.7	4.21 ± 0.15	3.09 ± 0.1	2.35 ± 0.07	1.79 ± 0.05
x1 = 0.3	908.63 ± 2.3	898.53 ± 2.6	888.11 ± 2.4	880.03 ± 2.5	8.22 ± 0.27	5.37 ± 0.17	3.76 ± 0.11	2.74 ± 0.08
x1 = 0.4	935.65 ± 2.3	925.07 ± 2.5	915.04 ± 2.3	906.65 ± 2.4	14.62 ± 0.44	9.08 ± 0.26	6.08 ± 0.17	4.22 ± 0.11
x1 = 0.4997	957.92 ± 2.3	947.38 ± 2.4	937.71 ± 2.2	929.72 ± 2.3	24.18 ± 0.68	14.41 ± 0.39	9.37 ± 0.25	6.19 ± 0.16
x1 = 0.5996	976.58 ± 2.2	966.68 ± 2.3	957.44 ± 2.1	949.14 ± 2.2	36.92 ± 1	21.51 ± 0.57	13.45 ± 0.34	8.75 ± 0.22
x1 = 0.6992	992.84 ± 2.1	983.3 ± 2.2	974.42 ± 2.1	966.36 ± 2.1	55.46 ± 1.4	31.16 ± 0.79	18.74 ± 0.45	11.65 ± 0.28
x1 = 0.7994	1007.09 ± 2	997.81 ± 2.1	989.49 ± 2	981.48 ± 2.1	78.97 ± 2	42.47 ± 1.1	24.16 ± 0.58	14.94 ± 0.35
x1 = 0.9007	1019.25 ± 2.1	1010.53 ± 2	1002.88 ± 1.9	995.08 ± 1.9	107.09 ± 2.8	56.14 ± 1.5	31.76 ± 0.82	18.8 ± 0.44

NCCNCCN [di(2-aminoethyl)amine] + CCO
Conditions	mass density, 293.15 K [kg/m3]	mass density, 303.15 K [kg/m3]	mass density, 313.15 K [kg/m3]	mass density, 323.15 K [kg/m3]	viscosity, 293.15 K [mPa·s]	viscosity, 303.15 K [mPa·s]	viscosity, 313.15 K [mPa·s]	viscosity, 323.15 K [mPa·s]
x1 = 0.1	831.18 ± 2.6	820.88 ± 2.7	809.43 ± 2.5	800.56 ± 2.3	2.38 ± 0.06	1.82 ± 0.05	1.43 ± 0.04	1.16 ± 0.03
x1 = 0.1999	864.18 ± 2.4	852.13 ± 2.9	839.06 ± 2.8	828.38 ± 2.9	3.4 ± 0.08	2.52 ± 0.06	1.95 ± 0.04	1.54 ± 0.04
x1 = 0.3001	888.74 ± 2.6	875.32 ± 2.9	862.26 ± 2.9	849.95 ± 3	4.31 ± 0.1	3.11 ± 0.07	2.33 ± 0.05	1.81 ± 0.04
x1 = 0.4	905.98 ± 2.7	892.48 ± 2.9	879.84 ± 2.8	866.96 ± 3	5.06 ± 0.11	3.57 ± 0.08	2.64 ± 0.06	2.03 ± 0.04
x1 = 0.4998	918.77 ± 2.7	905.55 ± 2.8	893.25 ± 2.7	881.28 ± 2.8	5.59 ± 0.12	3.93 ± 0.08	2.89 ± 0.06	2.2 ± 0.05
x1 = 0.6001	928.75 ± 2.7	915.84 ± 2.6	904.57 ± 2.5	892.92 ± 2.7	6.05 ± 0.13	4.19 ± 0.09	3.06 ± 0.07	2.31 ± 0.05
x1 = 0.6992	936.55 ± 2.5	924.86 ± 2.5	913.73 ± 2.4	903.03 ± 2.5	6.39 ± 0.14	4.38 ± 0.09	3.15 ± 0.07	2.37 ± 0.05
x1 = 0.7998	943.08 ± 2.4	931.95 ± 2.4	921.49 ± 2.3	911.41 ± 2.3	6.61 ± 0.14	4.53 ± 0.1	3.26 ± 0.07	2.45 ± 0.05
x1 = 0.9007	948.15 ± 2.3	937.76 ± 2.2	928.32 ± 2.2	918.94 ± 2.1	6.8 ± 0.14	4.65 ± 0.1	3.31 ± 0.07	2.5 ± 0.05
